Source: US12377082B2, “Nicorandil derivatives” (priority 2019, dated 2025)

Experiments:
[1] = Pharmacokinetics (PK) in rat, oral dosing, plasma levels of parent drug nicorandil; type: in vivo, SD rats
Experimental: Pharmacokinetics (PK) Protocol: Rat
The dosing vehicle used in this study was PEG400. 1, 3, 10 mg/kg oral dosing was done in overnight fasted SD rats and the parent drug generated was monitored. Also presence of modified drug was checked. After oral (PO) dosing blood was collected by serial bleeding at 8 different time points in heparinised tubes. […] Supernatant was kept for analysis. […] Quantitative analysis was done by liquid chromatography tandem mass spectrometer (API3000 LC-MS/MS).

[2] = Pharmacokinetics (PK) in dog, oral dosing; type: in vivo, Beagle dog
Experimental: Pharmacokinetics (PK) Protocol: Dog
0.5 ml blood was collected at each time point from the femoral vein via direct stick at defined time points. in tubes containing anticoagulant. […] Supernatant was kept for analysis. […] Quantitative analysis was done by liquid chromatography tandem mass spectrometer (API3000 LC-MS/MS).

[3] = Conversion of Compound A to nicorandil in rat plasma (FIG. 2); type: in vitro ADME; details: various time points

dose linearity of plasma exposure ([1]; rat, 1, 3, 10 mg/kg oral): displayed dose linearity
modified drug detected in plasma ([1]; rat, oral): no modified drug was detected
plasma exposure (in words) ([1]; rat, oral): excellent plasma exposure
plasma exposure compared (AUC and Cmax) ([2]; 3 mg/kg oral): significantly higher
modified drug detected in plasma ([2]; oral): no modified drug was detected
plasma exposure (in words) ([2]; oral): excellent plasma exposure
conversion to nicorandil [3]: Complete conversion to nicorandil
Structure (SMILES): C[C@H](NC(=O)OC[n+]1cccc(C(=O)NCCO[N+](=O)[O-])c1)C1CCCCC1 [Compound 8, (S)-1-(((1-cyclohexylethylcarbamoyl)oxy)methyl)-3-((2-(nitroxy)ethyl)carbamoyl)pyridine-1-ium iodide]
